Measurements as given in patent publication US10265257B2, “Personal care composition” (Innospec Limited, priority 2007, dated 2019).
Read-outs that look alike come from different tables or passages of the source.

Tests used:
Zein protein [1] = conditions: stated as known for comparison compounds; cited from earlier work
[2] = Stability of SCMI in aqueous solution (amount of SCMI present over time); type: physicochemical; conditions: 10 wt % aqueous solutions, initial pH 4.5, 5.5, 6.5, 7.5, 8.5 and 9.5, held at 48.9° C., 30 days
Experimental: In a preliminary test the stability of SCMI in 10 wt % aqueous solutions adjusted to have initial pH values respectively of 4.5, 5.5, 6.5, 7.5, 8.5 and 9.5, each held at 48.9° C. for an extended period of days, were tested for the amount of SCMI present over the test period.
(§1) The pH values were read using a standard electrode pH meter (Fisher Accument XL-25). The electrode was place in the composition (no further dilution) and the pH recorded.

[3] = pH stability of SCMI solutions over time; type: physicochemical
Experimental: as §1
In a preliminary test 10 wt % solutions of SCMI, adjusted to have initial pH values respectively of 4.5, 5.5, 6.5, 7.5, 8.5 and 9.5, each held at 48.9° C. for an extended period of days, were tested for their pH stability over the extended period. The pH testing was as described above.

[4] = Simple solubility tests in deionised water; type: physicochemical
Zein protein [5] = test: Zein protocol in-vitro skin irritancy test; conditions: FIG. 3, surfactant solution 2 wt %, 1 hour at 35° C.
Text: (§2) The Zein protocol is an in-vitro test to measure skin irritancy of formulations. The method makes use of the correlation between binding ability of surfactants to proteins and the damage the surfactant causes to the skin. […] Zein protein, an insoluble protein extracted from corn kernel, is used as a model for epidermal protein and the solubility of the Zein protein in surfactant solutions is believed to be a reliable guide for the skin irritancy caused by the surfactant. The test involves establishing the amount of Zein protein which can be solubilised by surfactant. 5 g of Zein protein may be dispersed in 40 cm^3 of surfactant solution (at 2 wt % concentration). The mixture is shaken for 1 hour at 35° C., and immediately centrifuged to remove any non-solubilised Zein. The amount solubilised is estimated from the solution nitrogen content using micro-Kjeldahl method (making allowance for any nitrogen in the compound tested).

Zein protein [6] = test system: Zein protein
Text: as §2

For sodium cocoyl isethionate [SCI], the “skin irritancy, known” value (Zein protein [1]) is given as “low irritancy”.

In the case of sodium cocoylmethylisethionate [SCMI], the “percentage of SCMI present, Day 0 to Day 30” value [2] is reported as “does not change”, the “pH change of sample held at highest pH value” ([3]; 10 wt % solution, initial pH 9.5, 48.9° C., first few days) is reported as “small pH reduction” and the “pH values from Day 0 to Day 30” value ([3]; 10 wt % solutions, initial pH 4.5 to 9.5, held at 48.9° C., 30 days) is reported as “substantially unchanged”. The “appearance of 10 wt % in deionised water (solubility test)” value [4] was “clear solution” and the “skin irritancy (Zein protocol)” value (Zein protein [5]) was “low irritancy”.

For sodium laureth sulfate [SLES], the “skin irritancy, known” value (Zein protein [1]) is listed as “significant irritancy”.

For sodium lauroylmethylisethionate [SLMI], the “skin irritancy (Zein protocol)” value (Zein protein [6]) was “low irritancy”.
